Reference: patent publication US20240158370A1, “CK1 alpha AND DUAL CK1 alpha / GSPT1 DEGRADING COMPOUNDS” (Innovo Therapeutics, Inc., priority 2022, published 2024)

Legend:
CK1α = target: T1, CK1α (Homo sapiens, UniProt P48729+Q96SW2); test: HiBiT degradation assay, CK1α, Procedure A; assay type: cell-based; conditions: six hours
T1 construct: CSNK1A1-HiBit KI HEK293(LgBit) Cells; host or cells: HEK293(LgBit) knock-in cells
Method in brief: (§1)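 Luminescence from HiBiT lytic detection reports remaining tagged protein after cells sit six hours at 37° C with compound across ten concentrations (10 μM down to 0.005 μM, 0.1% DMSO). A 4-parameter curve fit gives DC50 and Ymin.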

GSPT1 = GSPT1 (Homo sapiens, UniProt P15170+Q96SW2); test: HiBiT degradation assay, GSPT1, Procedure A; assay type: cell-based; design: HiBit-GSPT1 KI HEK293(LgBit) Cells; host or cells: HEK293(LgBit) knock-in cells; conditions: six hours
Method in brief: as §1

T1 sequence (P48729 whole entry): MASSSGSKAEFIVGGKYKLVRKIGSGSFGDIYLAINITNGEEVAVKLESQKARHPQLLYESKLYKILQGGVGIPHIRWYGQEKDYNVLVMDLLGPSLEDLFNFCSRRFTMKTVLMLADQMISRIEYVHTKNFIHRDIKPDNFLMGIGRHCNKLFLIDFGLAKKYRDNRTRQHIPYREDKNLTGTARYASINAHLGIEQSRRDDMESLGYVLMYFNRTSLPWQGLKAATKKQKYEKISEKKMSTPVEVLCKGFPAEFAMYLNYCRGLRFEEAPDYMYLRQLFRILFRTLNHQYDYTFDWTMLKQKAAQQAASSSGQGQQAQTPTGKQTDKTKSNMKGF
T1 sequence (Q96SW2 whole entry): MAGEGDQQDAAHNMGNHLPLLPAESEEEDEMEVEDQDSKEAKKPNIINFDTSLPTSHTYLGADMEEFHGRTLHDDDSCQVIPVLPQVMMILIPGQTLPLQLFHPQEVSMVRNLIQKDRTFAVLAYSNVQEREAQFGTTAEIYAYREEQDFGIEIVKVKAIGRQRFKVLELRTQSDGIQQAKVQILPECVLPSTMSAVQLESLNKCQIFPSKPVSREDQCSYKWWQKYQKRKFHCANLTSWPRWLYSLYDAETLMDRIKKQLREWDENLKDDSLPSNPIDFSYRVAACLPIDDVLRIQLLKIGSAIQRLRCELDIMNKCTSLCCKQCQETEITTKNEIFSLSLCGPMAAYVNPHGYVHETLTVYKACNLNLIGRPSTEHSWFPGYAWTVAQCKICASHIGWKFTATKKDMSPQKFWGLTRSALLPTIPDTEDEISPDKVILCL
T1 sequence (Q16531 whole entry partner): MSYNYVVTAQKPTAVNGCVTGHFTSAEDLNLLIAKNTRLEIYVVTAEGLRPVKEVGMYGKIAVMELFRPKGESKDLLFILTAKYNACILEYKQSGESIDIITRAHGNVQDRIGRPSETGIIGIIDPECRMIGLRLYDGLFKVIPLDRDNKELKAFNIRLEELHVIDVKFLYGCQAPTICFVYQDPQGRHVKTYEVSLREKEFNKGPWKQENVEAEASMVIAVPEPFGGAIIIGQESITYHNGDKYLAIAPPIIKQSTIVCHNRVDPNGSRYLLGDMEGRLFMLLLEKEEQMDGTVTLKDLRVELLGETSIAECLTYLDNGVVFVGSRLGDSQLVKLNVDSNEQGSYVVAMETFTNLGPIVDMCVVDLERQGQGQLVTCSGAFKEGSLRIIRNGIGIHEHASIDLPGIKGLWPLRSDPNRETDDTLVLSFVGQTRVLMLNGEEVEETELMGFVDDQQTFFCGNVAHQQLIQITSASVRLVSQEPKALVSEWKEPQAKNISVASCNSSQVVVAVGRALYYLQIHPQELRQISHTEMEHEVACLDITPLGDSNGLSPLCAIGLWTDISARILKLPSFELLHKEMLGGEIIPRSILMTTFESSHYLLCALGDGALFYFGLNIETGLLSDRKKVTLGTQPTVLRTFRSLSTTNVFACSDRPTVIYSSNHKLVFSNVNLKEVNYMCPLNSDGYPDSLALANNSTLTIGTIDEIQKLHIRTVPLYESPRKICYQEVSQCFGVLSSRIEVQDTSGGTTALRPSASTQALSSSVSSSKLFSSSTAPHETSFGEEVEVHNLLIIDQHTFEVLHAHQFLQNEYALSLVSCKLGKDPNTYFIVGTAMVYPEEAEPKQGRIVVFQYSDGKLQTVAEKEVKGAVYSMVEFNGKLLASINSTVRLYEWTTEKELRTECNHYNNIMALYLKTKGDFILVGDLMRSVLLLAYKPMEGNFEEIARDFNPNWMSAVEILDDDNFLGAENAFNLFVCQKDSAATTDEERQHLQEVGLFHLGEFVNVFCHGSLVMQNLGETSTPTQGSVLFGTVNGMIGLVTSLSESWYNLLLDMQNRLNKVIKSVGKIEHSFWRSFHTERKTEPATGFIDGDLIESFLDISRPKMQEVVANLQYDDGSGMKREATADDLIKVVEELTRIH
Sequence of GSPT1 (P15170 whole entry): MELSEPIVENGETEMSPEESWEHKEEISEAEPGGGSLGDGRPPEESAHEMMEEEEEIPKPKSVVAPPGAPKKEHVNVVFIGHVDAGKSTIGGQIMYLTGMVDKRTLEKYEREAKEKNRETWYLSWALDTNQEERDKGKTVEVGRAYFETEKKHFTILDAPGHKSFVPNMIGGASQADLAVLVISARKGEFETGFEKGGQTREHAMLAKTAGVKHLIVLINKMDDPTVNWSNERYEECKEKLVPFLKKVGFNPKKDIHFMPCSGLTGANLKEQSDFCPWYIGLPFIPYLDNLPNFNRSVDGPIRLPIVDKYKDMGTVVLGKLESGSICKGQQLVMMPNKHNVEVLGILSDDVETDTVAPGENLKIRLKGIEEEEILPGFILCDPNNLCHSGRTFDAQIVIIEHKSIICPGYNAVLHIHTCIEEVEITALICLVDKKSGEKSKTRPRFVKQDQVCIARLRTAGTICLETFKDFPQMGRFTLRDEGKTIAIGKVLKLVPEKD
Sequence of GSPT1 (Q96SW2 whole entry): as the sequence (Q96SW2 whole entry) above
Sequence of GSPT1 (Q16531 whole entry partner): as the sequence (Q16531 whole entry partner) above

Row | SMILES | CK1α Ymin (CK1α) | DC50 (CK1α) | DC50 (GSPT1) | GSPT1 Ymin (GSPT1)
1 | Cn1ncc(-c2ccc3c(c2)CN(C2CCC(=O)NC2=O)C3=O)c1-c1ccc2nccnc2c1 (stereo not drawn) [Example 462] | E (E = >25-75% remaining) | ≥ 25 nM | ≥ 25 nM | F (F = >75-100% remaining)
2 | Cn1ncc(-c2ccc3c(c2)CN(C2CCC(=O)NC2=O)C3=O)c1-c1ccc2ncn(C)c2c1 (stereo not drawn) [Example 463] | D (D = >10- 25% remaining) | ≥ 25 nM | ≥ 25 nM | F (F = >75-100% remaining)
3 | Cn1ncc(-c2ccc3c(c2)CN(C2CCC(=O)NC2=O)C3=O)c1-c1cnn(Cc2cccnc2)c1 (stereo not drawn) [Example 464] | F (F = >75-100% remaining) | ≥ 25 nM | ≥ 25 nM | F (F = >75-100% remaining)
4 | Cn1ncc(-c2ccc3c(c2)CN(C2CCC(=O)NC2=O)C3=O)c1-c1ccc(N2CCCCC2)nc1 (stereo not drawn) [Example 465] | E (E = >25-75% remaining) | ≥ 25 nM | ≥ 25 nM | F (F = >75-100% remaining)
5 | Cn1ncc(-c2ccc3c(c2)CN(C2CCC(=O)NC2=O)C3=O)c1-c1cncc(OCc2ccccc2)c1 (stereo not drawn) [Example 467] | F (F = >75-100% remaining) | ≥ 25 nM | ≥ 25 nM | –
6 | Cn1ncc(-c2ccc3c(c2)CN(C2CCC(=O)NC2=O)C3=O)c1-c1cn[nH]c1 (stereo not drawn) [Example 468] | E (E = >25-75% remaining) | ≥ 25 nM | ≥ 25 nM | F (F = >75-100% remaining)
7 | Cn1ncc(-c2ccc3c(c2)CN(C2CCC(=O)NC2=O)C3=O)c1-c1cc[nH]n1 (stereo not drawn) [Example 469] | D (D = >10- 25% remaining) | ≥ 25 nM | ≥ 25 nM | F (F = >75-100% remaining)
8 | Cn1ccc(-c2c(-c3ccc4c(c3)CN(C3CCC(=O)NC3=O)C4=O)cnn2C)n1 (stereo not drawn) [Example 470] | E (E = >25-75% remaining) | ≥ 25 nM | ≥ 25 nM | F (F = >75-100% remaining)

Other lines, results leading:

Row | CK1α Ymin (CK1α) | DC50 (CK1α) | DC50 (GSPT1) | GSPT1 Ymin (GSPT1) | SMILES
9 | E (E = >25-75% remaining) | ≥ 25 nM | ≥ 25 nM | F (F = >75-100% remaining) | Cn1ncc(-c2ccc3c(c2)CN(C2CCC(=O)NC2=O)C3=O)c1-c1ccn(C)c(=O)c1 (stereo not drawn) [Example 457]
10 | F (F = >75-100% remaining) | < 25 nM | < 25 nM | F (F = >75-100% remaining) | COc1ccncc1-c1c(-c2ccc3c(c2)CN(C2CCC(=O)NC2=O)C3=O)cnn1C (stereo not drawn) [Example 458]
11 | E (E = >25-75% remaining) | < 25 nM | ≥ 25 nM | F (F = >75-100% remaining) | Cn1ncc(-c2ccc3c(c2)CN(C2CCC(=O)NC2=O)C3=O)c1-c1ccc(=O)n(C)c1 (stereo not drawn) [Example 459]
12 | D (D = >10- 25% remaining) | ≥ 25 nM | ≥ 25 nM | F (F = >75-100% remaining) | Cn1ncc(-c2ccc3c(c2)CN(C2CCC(=O)NC2=O)C3=O)c1-c1ccc2nc[nH]c2c1 (stereo not drawn) [Example 460]
13 | C (C = 0-10% remaining) | ≥ 25 nM | ≥ 25 nM | F (F = >75-100% remaining) | Cn1ncc(-c2ccc3c(c2)CN(C2CCC(=O)NC2=O)C3=O)c1-c1ccc2cncn2c1 (stereo not drawn) [Example 461]
14 | F (F = >75-100% remaining) | < 25 nM | ≥ 25 nM | F (F = >75-100% remaining) | Cn1ncc(-c2ccc3c(c2)CN(C2CCC(=O)NC2=O)C3=O)c1-c1ccc(N2CCOCC2)nc1 (stereo not drawn) [Example 466]
15 | C (C = 0-10% remaining) | < 25 nM | ≥ 25 nM | F (F = >75-100% remaining) | Cn1ncc(-c2ccc3c(c2)CN(C2CCC(=O)NC2=O)C3=O)c1-c1cccs1 (stereo not drawn) [Example 471]
16 | E (E = >25-75% remaining) | < 25 nM | ≥ 25 nM | F (F = >75-100% remaining) | Cc1ncccc1-c1c(-c2ccc3c(c2)CN(C2CCC(=O)NC2=O)C3=O)cnn1C (stereo not drawn) [Example 472]
